The values below come from ChEMBL document CHEMBL1131658, “Potent cyclic urea HIV protease inhibitors with 3-aminoindazole P2/P2' groups” (Bioorg Med Chem Lett, 1998).

A short description of series [1]: Percentage Bioavailability was evaluated. The class given is ADME, organism-based. As to conditions: in vivo; read-out: Bioavailabiility.
Series [2] is described as follows: Maximum concentration of compound in dog was evaluated. It counts as ADME, organism-based, Canis lupus familiaris. The following applies: in vivo.
Series [3] is described as follows: Maximum concentration of compound in rat was evaluated. It counts as ADME, organism-based. The following applies: in vivo.
Series [4] in a line: Half life period was evaluated. It counts as ADME.
The next series relates to MT2. In words: Compound was evaluated for accumulation of viral RNA transcripts three days after infection of MT-2 cells with HIV-1 RF. It counts as functional. The following applies: Homo sapiens, MT2, 72 h.
Series [5] addresses Human immunodeficiency virus type 1 protease (Human immunodeficiency virus 1, UniProt Q72874). The series can be described thus: The compound was evaluated for inhibition of HIV protease.
The nature of series [6]: Ratio of -logKi with respect to inhibition was evaluated. It counts as functional.

Each structure is given as a SMILES string.

As usually defined, the Cmax is the peak of the concentration-time curve. As usually defined, the half-life is the time in which the quantity being followed falls by half. Low values mean fast loss, high ones slow loss. By IC90 is commonly meant the point of the concentration-response curve where the effect stands at 90%. High values mean a need for much substance, low ones an effect from little substance. Take `O=C1N(Cc2ccc3[nH]ncc3c2)[C@H](Cc2ccccc2)[C@H](O)[C@@H](O)[C@@H](Cc2ccccc2)N1Cc1ccc2[nH]ncc2c1`: in series [1], the bioavailability is 13%. The Cmax in series [2] amounted to 1000 nM; in series [3], 30 nM. This molecule showed a half-life in series [4] of 2 h. It took 8 nM to reach the 90% level with MT2 (IC90).

For orientation: Ki means the equilibrium dissociation constant of an inhibitor or competing ligand from its target. Low values mean a stronger hold on the target, high ones a looser hold on the target. Molecule `CC(C)Nc1[nH]nc2ccc(CN3C(=O)N(Cc4ccc5n[nH]c(NC(C)C)c5c4)[C@H](Cc4ccccc4)[C@H](O)[C@@H](O)[C@H]3Cc3ccccc3)cc12` had a Ki in series [5] of 0.09 nM. The molecule also had an IC90 with MT2 of 24 nM. Besides, the Ratio in series [6] stood at 2.4.

In turn, `Nc1n[nH]c2ccc(CN3C(=O)N(Cc4ccc5[nH]nc(N)c5c4)[C@H](Cc4ccccc4)[C@H](O)[C@@H](O)[C@H]3Cc3ccccc3)cc12` gave a Ki in series [5] below 0.01 nM.

Take `O=C1N(Cc2ccc3[nH]c(O)nc3c2)[C@H](Cc2ccccc2)[C@H](O)[C@@H](O)[C@@H](Cc2ccccc2)N1Cc1ccc2[nH]c(O)nc2c1`: the Ki in series [5] was below 0.01 nM. For the same molecule, the IC90 in the series on MT2 is above 65000 nM.

`Nc1[nH]nc2ccc(CN3C(=O)N(Cc4ccc5n[nH]c(N)c5c4)[C@H](Cc4ccccc4)[C@H](O)[C@@H](O)[C@H]3Cc3ccccc3)cc12` came in with an IC90 in the series with MT2 of 2760 nM. The Ratio in series [6] came out at 5.4.

Take `CNc1[nH]nc2ccc(CN3C(=O)N(Cc4ccc5n[nH]c(NC)c5c4)[C@H](Cc4ccccc4)[C@H](O)[C@@H](O)[C@H]3Cc3ccccc3)cc12`: the Ki in series [5] worked out at 0.018 nM. In addition, in the series on MT2, the IC90 came out at 279 nM. The Ratio in series [6] is 4.2.

In turn, `O=C1N(Cc2ccc3[nH]nc(NCC4CC4)c3c2)[C@H](Cc2ccccc2)[C@H](O)[C@@H](O)[C@@H](Cc2ccccc2)N1Cc1ccc2[nH]nc(NCC3CC3)c2c1` returned a Ki in series [5] of 0.34 nM. The IC90 in the series on MT2 is 38 nM. Further, in series [6], the Ratio is 2.1.

With `O=C1N(Cc2ccc3[nH]nc(N4CCCC4)c3c2)[C@H](Cc2ccccc2)[C@H](O)[C@@H](O)[C@@H](Cc2ccccc2)N1Cc1ccc2[nH]nc(N3CCCC3)c2c1`, the Ki in series [5] was 1.3 nM. In the series on MT2, the concentration for an effect of 90% (IC90) came to 120 nM. Moreover, in series [6], the Ratio came to 2.

In series [5], `CCCNc1[nH]nc2ccc(CN3C(=O)N(Cc4ccc5n[nH]c(NCCC)c5c4)[C@H](Cc4ccccc4)[C@H](O)[C@@H](O)[C@H]3Cc3ccccc3)cc12` registered a Ki of 0.23 nM. The molecule further registered an IC90 with MT2 of 40 nM. The Ratio in series [6] was 2.2.

With `CCNc1[nH]nc2ccc(CN3C(=O)N(Cc4ccc5n[nH]c(NCC)c5c4)[C@H](Cc4ccccc4)[C@H](O)[C@@H](O)[C@H]3Cc3ccccc3)cc12`, the Ki in series [5] came to 0.041 nM. Moreover, the IC90 with MT2 is 65 nM. Besides, the Ratio in series [6] stood at 3.2.
